The nature of experiment [1]: Disregulation of cell survival related gene expression in human U87 cells assessed as change in FGF2 mRNA level at 0.5 uM after 16 hrs by microarray analysis relative to untreated control. The experiment is classed as functional, cell-based. The following applies: U-87MG ATCC.
A short description of experiment [2]: Cytotoxicity against human KB3 cells after 72 hrs by MTS assay. The experiment is classed as functional. The following applies: KB3, 72 h. (In general: Formazan colour is commonly taken as a measure of viable cells.)
Experiment [3] in a line: Disregulation of apoptosis related gene expression in human U87 cells assessed as change in IGFBP3 mRNA level at 0.5 uM after 16 hrs by microarray analysis relative to untreated control. The experiment is classed as functional, cell-based. To be noted: U-87MG ATCC.
Experiment [4] is described as follows: Cytotoxicity against human U373 cells by MTT assay. It counts as functional, cell-based, U-373MG ATCC. To be noted: U373 MG.
The nature of experiment [5]: Disregulation of inflammation related gene expression in human U87 cells assessed as change in IL8 mRNA level at 0.5 uM after 16 hrs by microarray analysis relative to untreated control. To be noted: U-87MG ATCC. It counts as functional, cell-based.
Experiment [6] can be described thus: Disregulation of cell cycle related gene expression in human U87 cells assessed as change in SKP2 mRNA level at 0.5 uM after 16 hrs by microarray analysis relative to untreated control. The experiment is classed as functional, cell-based. The following applies: U-87MG ATCC.
A short description of experiment [7]: Disregulation of endoplasmic reticulum stress responsive gene expression in human U87 cells assessed as change in RGS16 mRNA level at 0.5 uM after 3 hrs by microarray analysis relative to untreated control. The following applies: U-87MG ATCC. It counts as functional, cell-based.
A short description of experiment [8]: Disregulation of endoplasmic reticulum stress responsive gene expression in human U87 cells assessed as change in ATF3 mRNA level at 0.5 uM after 16 hrs by microarray analysis relative to untreated control. The experiment is classed as functional, cell-based. The following applies: U-87MG ATCC.
The nature of experiment [9]: Disregulation of cell development related gene expression in human U87 cells assessed as change in HQXB9 mRNA level at 0.5 uM after 16 hrs by microarray analysis relative to untreated control. The following applies: U-87MG ATCC. The experiment is classed as functional, cell-based.
Experiment [10] in a line: Disregulation of endoplasmic reticulum stress responsive gene expression in human U87 cells assessed as change in ATF4 mRNA level at 0.5 uM after 16 hrs by microarray analysis relative to untreated control. The following applies: U-87MG ATCC. The experiment is classed as functional, cell-based.

1 molecule from ChEMBL document CHEMBL1153753, “Structure-activity relationships and mechanism of action of antitumor bis 8-hydroxyquinoline substituted benzylamines” (Eur J Med Chem, 2010) can be followed below.

As a reminder, the CC50 is the concentration at which the toxic effect on the cells reaches its halfway point. A higher CC50 goes with better tolerance by the cells. By IC50 is commonly meant the concentration that inhibits the measured activity by half. Low readings indicate greater potency, high ones weaker potency.

Active and inactive are the calls of the source. No cut-off for these calls is given here.

As for `Cc1ccc(CN(Cc2ccc(O)c3ncccc23)Cc2ccc(O)c3ncccc23)cc1`, the fold change (FC) is 3 in experiment [1]; 3 in [3]; 3 in [5]; 3 in experiment [6]; above 1.4 in experiment [7]; 3 in [9]. The fold change (FC) in experiment [10] amounted to 3. Besides, the midpoint of cytotoxicity in [2], the CC50, lay at 3 nM. In experiment [4], this molecule came in with an IC50 of 53 nM. The result in experiment [8] was Active.
